For orientation: IC50 means the midpoint of a concentration-inhibition curve.

From BindingDB's records for doi:10.1016/j.bioorg.2016.01.001 (Indian Institute of Integrative Medicine, 2016) come the findings set out here.

This assay deals with T1, Tyrosinase (Mus musculus, UniProt P11344).
T1 sequence (P11344 whole entry): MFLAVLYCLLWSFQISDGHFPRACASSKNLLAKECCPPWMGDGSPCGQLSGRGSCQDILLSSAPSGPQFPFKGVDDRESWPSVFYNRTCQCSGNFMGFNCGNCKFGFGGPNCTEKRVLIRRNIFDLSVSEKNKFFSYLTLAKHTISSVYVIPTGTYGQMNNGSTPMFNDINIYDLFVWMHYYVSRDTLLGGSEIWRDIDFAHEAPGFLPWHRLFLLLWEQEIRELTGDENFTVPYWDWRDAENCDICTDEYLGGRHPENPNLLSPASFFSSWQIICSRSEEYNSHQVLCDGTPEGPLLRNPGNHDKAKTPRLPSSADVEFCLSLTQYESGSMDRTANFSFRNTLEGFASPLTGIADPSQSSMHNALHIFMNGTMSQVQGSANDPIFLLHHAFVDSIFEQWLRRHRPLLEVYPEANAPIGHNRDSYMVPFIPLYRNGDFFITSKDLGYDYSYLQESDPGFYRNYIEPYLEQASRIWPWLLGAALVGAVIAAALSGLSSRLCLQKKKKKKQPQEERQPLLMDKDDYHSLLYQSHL
The experiment in a line: Tyrosinase Activity. The note with it: pH 6.8. As for the experimental part:
The reaction mixture contained 50 mM phosphate buffer, pH 6.8, 0.05% L-DOPA and the supernatant (tyrosinase). After incubation in the absence or presence of various stilbene derivatives (with varying concentrations ranging from 1 µg/mL to 100 µg/mL) at 37 °C for 20 min, dopachrome was monitored by measuring absorbanceat wavelength 492 nm by using a Molecular Devices microplate reader.
In the case of `COc1ccc(/C=C\c2cc(OC)c(OC)c(OC)c2)cc1` [1,2,3-Trimethoxy-5-[(Z)-2-(4-methoxy-phenyl)-vinyl]-benzene], the IC50 was over 500 µM.

`Oc1ccc(/C=C/c2cc(O)cc(O)c2)cc1` [5-[(E)-2-(4-hydroxyphenyl)ethenyl]benzene-1,3-diol] displayed a 50% inhibitory concentration (IC50) of 10.8 µM.

`N#C/C(=C/c1ccc(O)cc1)c1ccc(O)cc1` [(E)-2,3-bis(4-Hydroxyphenyl)acrylonitrile (21)] had an IC50 of 5.06 µM.

For `N#C/C(=C/c1cccnc1)c1ccc(O)cc1` [(E)-2-(4-Hydroxyphenyl)-3-(pyridin-3-yl)acrylonitrile (22)], half-maximal inhibition (IC50) required 270 µM.

`COc1ccc(/C=C(/C=O)c2ccccc2)cc1` [(E)-3-(4-Methoxyphenyl)-2-phenylpropenal (20)] registered a half-maximal inhibitory concentration (IC50) of 276 µM.

For `COC(=O)/C(=C/c1ccc(O)c(OC)c1)c1ccc(OC)cc1` [(E)-Methyl-3-(4-hydroxy-3-methoxyphenyl)-2-(4-methoxyphenyl)acrylate (19)], the half-inhibitory concentration (IC50) is over 500 µM.

Turning to `Fc1c(F)c(F)c(/C=C\c2ccccc2)c(F)c1F` [Trans-1,2,3,4,5-Pentafluoro-6-styryl-benzene (14)], the IC50 was over 500 µM.

`C(=C\c1ccccc1)/c1ccccc1` [Trans-1,2-Diphenylethene (1)] yielded a half-maximal inhibitory concentration (IC50) of over 500 µM.

`Fc1cc(F)cc(/C=C\c2ccccc2)c1` [Trans-1,3-Difluoro-5-styrylbenzene (12)] came in with an IC50 of 394 µM.

Take `Brc1ccc(/C=C\c2ccccc2)cc1` [Trans-1-Bromo-4-styrylbenzene (4)]: the IC50 stood at 277 µM.

The molecule `Clc1ccc(/C=C\c2ccccc2)cc1` [Trans-1-Chloro-4-styrylbenzene (3)] displayed an IC50 of 320 µM.

For the molecule `Fc1ccc(/C=C\c2ccccc2)cc1` [Trans-1-Fluoro-4-styryl-benzene (2)], inhibition was half-maximal at 79.4 µM (IC50).

As to `COc1ccc(/C=C\c2ccccc2)cc1` [Trans-1-Methoxy-4-styryl-benzene (9)], the half-maximal inhibitory concentration (IC50) was found to be 433 µM.

Molecule `O=[N+]([O-])c1ccc(/C=C\c2ccccc2)cc1` [Trans-1-Nitro-4-styrylbenzene (5)] yielded a 50% inhibitory concentration (IC50) of 361 µM.

`COc1ccc(/C=C\c2ccc(F)cc2)cc1` [Trans-1-fluoro-4-(4-methoxystyryl)benzene (10)] returned an IC50 of 50 µM.

On to `COc1ccc(/C=C\c2ccccc2)cc1Br` [Trans-2-Bromo-1-methoxy-4-styryl-benzene (11)], for which the half-maximal inhibitory concentration (IC50) came to 56.2 µM.

On to `Oc1ccc(/C=C\c2ccccc2)cc1` [Trans-4-Styryl-phenol (8)], for which the IC50 was 17.4 µM.

`N#Cc1ccc(/C=C\c2ccccc2)cc1` [Trans-4-Styrylbenzonitrile (6)] came in with a 50% inhibitory concentration (IC50) of 50 µM.

Consider `C(=C/c1c2ccccc2cc2ccccc12)/c1ccccc1` [Trans-9-Styryl-anthracene (15)], for which it took 166 µM to reach half-maximal inhibition (IC50).

Molecule `CC(=O)Oc1ccc(C=Cc2ccccc2)cc1` [Trans-Acetic acid 4-styryl-phenyl ester (7)] showed an IC50 of over 500 µM.
